From patent US10188656B2, “Methods of treatment of malignancies” (Agios Pharmaceuticals, Inc., priority 2015, dated 2019)

How the values were obtained:
Assay type in all cases: in vivo, human
[1] = Phase 1/2 study: safety (AEs, NCI CTCAE v4.03); conditions: 100 mg, including ≥Grade 3
From the text: Monitoring of AEs, including determination of DLTs, serious adverse events (SAEs), and AEs leading to discontinuation; safety laboratory parameters; physical examination findings; vital signs; 12-lead ECGs; LVEF; and ECOG PS.
The severity of AEs will be assessed by the NCI CTCAE, Version 4.03.

[2] = test system: advanced hematologic malignancies with an IDH2 mutation; test: Example 2: NRAS mutation status at screening versus COMPOUND 1 response (next generation sequencing, Fisher's exact test)
Protocol: A subset of the clinical samples from the trial described in Example 1 were analyzed at screening. Sample types included bone marrow, peripheral blood and mononuclear cells isolated from bone marrow or peripheral blood. DNAs were extracted from these samples and sequenced at Foundation Medicine (see http://foundationone.com/learn.php) using next generation sequencing technique.
A total of 60 genes were identified to carry at least one mutation in the analyzed set (including IDH2 gene). Fisher's exact test was conducted to evaluate the association of somatic mutations with clinical response (responders include CR, CRp, CRi and PR, indicated as +, while none-responders include SD and PD, indicated as − in Table 9). The P-values were adjusted by multiple-test correction.
Mutation status positive (+) means any known mutation(s) in NRAS, and negative (−) means no mutation in NRAS was present.
Positive response status (+) includes CR, mCR and PR and negative response status (−) includes stable disease (SD) and pregressive disease (PD).

2-HG plasma levels = test: Phase 1/2 study: pharmacodynamic response, 2-HG plasma levels; conditions: most subjects with R140Q mutation, all doses; sustained reduction by Day 1 of Cycle 2
Protocol: Subjects in the dose escalation phase and Part 1 Expansion also will undergo PK/PD assessments over a 10-hour period on C1D15, C2D1, and C4D1. […] These subjects will have urine collected for PK/PD evaluation at screening; prior to dosing on C1D15, C2D1 and Day 1 of all cycles thereafter; and at the End of Treatment visit. Available bone marrow biopsy samples also will be assessed for 2-HG and α-KG levels.
The starting dose of COMPOUND 1 recommended for evaluation is 100 mg QD. This is based on the safety, PK, pharmacodynamics and clinical activity of COMPOUND 1 observed to date in AG221-C-001. […] Thus a dose of 100 mg should adequately achieve inhibition of 2-HG in subjects with either R140Q or R172K mutation.
Serial blood sampling for determination of concentration-time profiles of COMPOUND 1 and its metabolite (6-(6-(trifluoromethyl)pyridin-2-yl)-N2-(2-(trifluoromethyl)pyridin-4-yl)-1,3,5-triazine-2,4-diamine). Urine sampling for determination of concentrations of COMPOUND 1 and its metabolite (6-(6-(trifluoromethyl)pyridin-2-yl)-N2-(2-(trifluoromethyl)pyridin-4-yl)-1,3,5-triazine-2,4-diamine) (dose escalation and Part 1 expansion subjects only). Blood and bone marrow sampling for determination of 2-HG and α-KG levels.

[3] = test system: rrAML with an IDH2 mutation; test: Example 5: FoundationOne Heme panel co-mutations versus response to COMPOUND 1 in rrAML patients
Protocol: FoundationOne Heme panel analysis was performed on 100 screening samples from rrAML patients in the trial described in Example 1. Sample types included peripheral blood and bone marrow.
While rare, co-occurring mutations in TET2 (5 patients) and IDH1 (4 patients) were also observed in this cohort. Mechanistically, mutations in these genes may counteract the efficacy of COMPOUND 1; however, presence of either of these mutated genes was not associated with significant decrease in ORR or complete response (CR) (Table 10).
To further investigate the association between NRAS mutations and ORR to COMPOUND 1, a more detailed analysis of individual mutation sites was performed. NRAS mutations at G12, G13, and Q61 are the most highly characterized sites known to result in constitutive RAS signaling, see Prior I A, Lewis P D, Mattos C. A comprehensive survey of Ras mutations in cancer, Cancer Res. 2012; 72(10):2457-67. When mutations at these sites were analyzed versus ORR to COMPOUND 1, the observed decrease in ORR became statistically significant (p=0.002, see, FIG. 9A and Table 11). Table 11 provides a contingency table indicating statistical significance of lower overall response rate seen in patients presenting with an NRAS co-mutation.

[4] = rrAML, co-occurring ASXL1 mutation
[5] = rrAML, co-occurring ATM mutation
[6] = rrAML, co-occurring BCOR mutation
[7] = rrAML, co-occurring BCORL1 mutation
[8] = rrAML, co-occurring CBL mutation
[9] = rrAML, co-occurring CEBPA mutation
[10] = rrAML, co-occurring CUX1 mutation
[11] = rrAML, co-occurring DNMT3A mutation
[12] = rrAML, co-occurring ETV6 mutation
[13] = rrAML, co-occurring EZH2 mutation
[14] = rrAML, co-occurring FLT3 mutation
[15] = rrAML, co-occurring GATA2 mutation
[16] = rrAML, co-occurring IDH1 mutation
[17] = rrAML, co-occurring JAK2 mutation
[18] = rrAML, co-occurring KMT2A mutation
[19] = rrAML, co-occurring KRAS mutation
[20] = rrAML, co-occurring NPM1 mutation
[21] = rrAML, co-occurring NRAS mutation
[22] = rrAML, co-occurring PHF6 mutation
[23] = rrAML, co-occurring PTPN11 mutation
[24] = rrAML, co-occurring RUNX1 mutation
[25] = rrAML, co-occurring SETBP1 mutation
[26] = rrAML, co-occurring SF3B1 mutation
[27] = rrAML, co-occurring SRSF2 mutation
[28] = rrAML, co-occurring STAG2 mutation
[29] = rrAML, co-occurring TET2 mutation
[30] = rrAML, co-occurring TP53 mutation
[31] = rrAML, co-occurring U2AF1 mutation
[32] = rrAML, co-occurring WT1 mutation

CC(C)(O)CNc1nc(Nc2ccnc(C(F)(F)F)c2)nc(-c2cccc(C(F)(F)F)n2)n1 [COMPOUND 1, 2-methyl-1-[(4-[6-(trifluoromethyl)pyridin-2-yl]-6-{[2-(trifluoromethyl)pyridin-4-yl]amino}-1,3,5-triazin-2-yl)amino]propan-2-ol]
safety profile [1]: consistent with that of lower doses
number of patients ([2]; response status +, NRAS mutation +): 2
number of patients ([2]; response status +, NRAS mutation −): 55
number of patients ([2]; response status − (SD, PD), NRAS mutation +): 21
number of patients ([2]; response status − (SD, PD), NRAS mutation −): 40
inhibition of 2-HG plasma levels (2-HG plasma levels): up to 98%
number of patients, No Response ([3]; NRAS mt (G12, G13, Q61)): 13
number of patients, Response ([3]; NRAS mt (G12, G13, Q61)): 1
number of patients, No Response ([3]; NRAS wt): 37
number of patients, Response ([3]; NRAS wt): 40
ORR ([3]; patients with the least (≤3) co-occurring mutations): 69.2%
ORR ([3]; patients with the most (≥6) co-occurring mutations): 23.3%
CR [3, 4]: 0.269
CR, OR [3, 4]: 0.583
ORR [3, 4]: 0.385
ORR, OR [3, 4]: 0.784
ORR ([3]; rrAML, co-occurring ASXL1 mutation (text)): 39%
CR [3, 5]: 0.500
CR, OR [3, 5]: 1.721
ORR [3, 5]: 0.500
ORR, OR [3, 5]: 1.306
CR [3, 6]: 0.308
CR, OR [3, 6]: 0.743
ORR [3, 6]: 0.385
ORR, OR [3, 6]: 0.800
CR [3, 7]: 0.000
CR, OR [3, 7]: 0.334
ORR [3, 7]: 0.000
ORR, OR [3, 7]: 0.254
CR [3, 8]: 0.333
CR, OR [3, 8]: 0.853
ORR [3, 8]: 0.333
ORR, OR [3, 8]: 0.646
CR [3, 9]: 0.167
CR, OR [3, 9]: 0.331
ORR [3, 9]: 0.167
ORR, OR [3, 9]: 0.250
CR [3, 10]: 0.500
CR, OR [3, 10]: 1.721
ORR [3, 10]: 0.500
ORR, OR [3, 10]: 1.306
CR [3, 11]: 0.359
CR, OR [3, 11]: 0.945
ORR [3, 11]: 0.513
ORR, OR [3, 11]: 1.509
CR [3, 12]: 0.000
CR, OR [3, 12]: 0.334
ORR [3, 12]: 0.500
ORR, OR [3, 12]: 1.306
CR [3, 13]: 0.200
CR, OR [3, 13]: 0.418
ORR [3, 13]: 0.200
ORR, OR [3, 13]: 0.316
CR [3, 14]: 0.200
CR, OR [3, 14]: 0.408
ORR [3, 14]: 0.200
ORR, OR [3, 14]: 0.306
CR [3, 15]: 0.000
CR, OR [3, 15]: 0.334
ORR [3, 15]: 0.000
ORR, OR [3, 15]: 0.254
CR [3, 16]: 0.250
CR, OR [3, 16]: 0.563
ORR [3, 16]: 0.500
ORR, OR [3, 16]: 1.310
CR [3, 17]: 0.000
CR, OR [3, 17]: 0.182
ORR [3, 17]: 0.000
ORR, OR [3, 17]: 0.138
CR [3, 18]: 0.286
CR, OR [3, 18]: 0.662
ORR [3, 18]: 0.357
ORR, OR [3, 18]: 0.703
CR [3, 19]: 0.200
CR, OR [3, 19]: 0.418
ORR [3, 19]: 0.400
ORR, OR [3, 19]: 0.864
CR [3, 20]: 0.250
CR, OR [3, 20]: 0.548
ORR [3, 20]: 0.417
ORR, OR [3, 20]: 0.924
CR [3, 21]: 0.063
CR, OR [3, 21]: 0.099
ORR [3, 21]: 0.188
ORR, OR [3, 21]: 0.270
ORR ([3]; rrAML, co-occurring NRAS mutation (text)): 19%
CR [3, 22]: 0.333
CR, OR [3, 22]: 0.850
ORR [3, 22]: 0.500
ORR, OR [3, 22]: 1.314
CR [3, 23]: 0.000
CR, OR [3, 23]: 0.148
ORR [3, 23]: 0.000
ORR, OR [3, 23]: 0.112
CR [3, 24]: 0.217
CR, OR [3, 24]: 0.429
ORR [3, 24]: 0.261
ORR, OR [3, 24]: 0.411
ORR ([3]; rrAML, co-occurring RUNX1 mutation (text)): 26%
CR [3, 25]: 0.000
CR, OR [3, 25]: 0.237
ORR [3, 25]: 0.000
ORR, OR [3, 25]: 0.180
CR [3, 26]: 0.000
CR, OR [3, 26]: 0.237
ORR [3, 26]: 0.000
ORR, OR [3, 26]: 0.180
CR [3, 27]: 0.293
CR, OR [3, 27]: 0.637
ORR [3, 27]: 0.341
ORR, OR [3, 27]: 0.598
ORR ([3]; rrAML, co-occurring SRSF2 mutation (text)): 34%
CR [3, 28]: 0.455
CR, OR [3, 28]: 1.462
ORR [3, 28]: 0.455
ORR, OR [3, 28]: 1.091
CR [3, 29]: 0.333
CR, OR [3, 29]: 0.853
ORR [3, 29]: 0.333
ORR, OR [3, 29]: 0.646
CR [3, 30]: 0.000
CR, OR [3, 30]: 0.334
ORR [3, 30]: 0.000
ORR, OR [3, 30]: 0.254
CR [3, 31]: 0.500
CR, OR [3, 31]: 1.721
ORR [3, 31]: 1.000
ORR, OR [3, 31]: 6.678
CR [3, 32]: 0.333
CR, OR [3, 32]: 0.853
ORR [3, 32]: 0.333
ORR, OR [3, 32]: 0.646
